For 28 compounds, IC50 results are on record in patent US20230295140A1, “INHIBITORS OF VAP-1” (Acucela Inc., priority 2021, published 2023).

The term IC50 denotes the concentration that inhibits the measured activity by half. A lower IC50 goes with greater potency.

Type in all cases: biochemical
One assay concerns the target rhVAP-1 (Homo sapiens (Human), UniProt Q16853). Nature of the assay: VAP-1 fluorometric assay (Amplex Red/HRP, benzylamine substrate). The settings on record: class symbols, ranges defined in μM. In outline:
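Recombinant human VAP-1 oxidizes 50 μM benzylamine in 10 mM NaHCO3 pH 7.4 containing 0.05 mM Amplex Red and 0.5 U HRP, with inhibitor in 0.5% DMSO. After 30 min at 37 °C in the dark, resorufin fluorescence is read […], calibrated against an H2O2 standard curve.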

A further assay addresses rhMAO-A (Homo sapiens (Human), UniProt P21397). Briefly: MAO-Glo assay, MAO-A inhibition. Summed up:
(§1)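 Recombinant human MAO-A or MAO-B with luciferin-derivative substrate (10 μM for MAO-A, […]) in 100 mM HEPES pH 7.5, 5% glycerol, 1 h at room temperature; luminescence read 20 min after detection reagent.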

The target in the next assay is rhMAO-B (Homo sapiens (Human), UniProt P27338). Briefly: MAO-Glo assay, MAO-B inhibition. Summed up: as §1
[1] abbreviates: class symbols, ranges defined in μM.

Sequence of rhMAO-A (P21397 whole entry): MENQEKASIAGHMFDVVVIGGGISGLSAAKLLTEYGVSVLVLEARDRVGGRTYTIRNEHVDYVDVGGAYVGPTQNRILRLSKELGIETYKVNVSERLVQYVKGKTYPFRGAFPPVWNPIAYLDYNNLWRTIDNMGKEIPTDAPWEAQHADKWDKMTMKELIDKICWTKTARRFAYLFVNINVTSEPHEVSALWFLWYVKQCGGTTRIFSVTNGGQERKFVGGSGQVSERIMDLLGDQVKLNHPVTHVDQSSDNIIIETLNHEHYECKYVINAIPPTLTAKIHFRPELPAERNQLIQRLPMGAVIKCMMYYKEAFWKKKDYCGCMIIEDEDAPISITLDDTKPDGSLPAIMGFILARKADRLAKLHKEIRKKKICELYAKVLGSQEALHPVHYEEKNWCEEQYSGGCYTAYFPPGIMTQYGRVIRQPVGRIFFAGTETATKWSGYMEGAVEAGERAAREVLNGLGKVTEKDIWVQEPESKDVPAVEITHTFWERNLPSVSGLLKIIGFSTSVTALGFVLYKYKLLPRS
Sequence of rhMAO-B (P27338 whole entry): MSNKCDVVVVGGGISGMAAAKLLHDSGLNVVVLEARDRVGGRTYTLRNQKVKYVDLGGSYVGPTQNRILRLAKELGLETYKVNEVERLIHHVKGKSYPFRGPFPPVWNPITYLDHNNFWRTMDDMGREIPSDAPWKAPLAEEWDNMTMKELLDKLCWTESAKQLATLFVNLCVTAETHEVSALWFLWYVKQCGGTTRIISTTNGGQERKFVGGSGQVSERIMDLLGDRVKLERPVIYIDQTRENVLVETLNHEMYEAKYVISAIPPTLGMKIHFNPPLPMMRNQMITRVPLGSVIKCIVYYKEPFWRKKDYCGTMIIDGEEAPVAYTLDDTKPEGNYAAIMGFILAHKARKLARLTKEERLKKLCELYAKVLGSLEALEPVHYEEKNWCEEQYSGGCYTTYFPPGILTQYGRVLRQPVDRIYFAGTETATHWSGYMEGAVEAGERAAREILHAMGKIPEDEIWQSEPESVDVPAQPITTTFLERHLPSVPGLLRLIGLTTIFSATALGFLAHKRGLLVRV
Sequence of rhVAP-1 (Q16853 whole entry): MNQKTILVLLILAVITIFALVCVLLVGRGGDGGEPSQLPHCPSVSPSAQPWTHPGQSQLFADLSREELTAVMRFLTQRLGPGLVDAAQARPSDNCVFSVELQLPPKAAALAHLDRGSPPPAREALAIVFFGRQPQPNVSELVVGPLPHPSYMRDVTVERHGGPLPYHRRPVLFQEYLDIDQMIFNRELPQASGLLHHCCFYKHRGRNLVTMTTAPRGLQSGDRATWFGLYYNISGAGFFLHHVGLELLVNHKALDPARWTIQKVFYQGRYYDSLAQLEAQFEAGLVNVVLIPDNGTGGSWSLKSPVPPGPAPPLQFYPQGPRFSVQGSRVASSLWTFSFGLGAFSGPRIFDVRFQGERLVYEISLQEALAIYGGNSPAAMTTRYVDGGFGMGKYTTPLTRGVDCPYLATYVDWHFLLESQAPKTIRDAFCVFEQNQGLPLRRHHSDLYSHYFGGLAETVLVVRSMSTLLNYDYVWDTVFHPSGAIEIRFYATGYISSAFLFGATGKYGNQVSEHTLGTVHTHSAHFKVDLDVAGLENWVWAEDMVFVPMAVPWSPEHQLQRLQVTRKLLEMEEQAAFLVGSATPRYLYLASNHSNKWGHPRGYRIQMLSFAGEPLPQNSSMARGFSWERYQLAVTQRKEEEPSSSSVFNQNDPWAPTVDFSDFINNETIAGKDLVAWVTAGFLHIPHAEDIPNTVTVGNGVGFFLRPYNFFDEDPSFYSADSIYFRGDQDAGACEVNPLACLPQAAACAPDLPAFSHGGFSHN

In the case of `CCCCc1nc2ccc(C(=CF)CN)cc2o1` [Example 27, 2-(2-butylbenzo[d]oxazol-6-yl)-3-fluoroprop-2-en-1-amine 4-methylbenzenesulfonate], the IC50 at rhVAP-1 was less than 0.1 µM; at rhMAO-A (setting [1]) it was 1 to 10 µM; against rhMAO-B (setting [1]) it was 10 to 30 µM.

As to `NC/C(=C/F)COc1ccc2nc(N3CCOCC3)oc2c1` [Example 64, (Z)-3-fluoro-2-(((2-morpholinobenzo[d]oxazol-6-yl)oxy)methyl)prop-2-en-1-amine 4-methylbenzenesulfonate], the IC50 on rhVAP-1 was less than 0.1 µM; against rhMAO-A (setting [1]), 1 to 10 µM; against rhMAO-B (setting [1]) it was 1 to 10 µM.

For the compound `NC/C(=C\F)COc1ccc2nc(NCCCO)oc2c1` [Example 70, (E)-3-((6-((2-(aminomethyl)-3-fluoroallyl)oxy)benzo[d]oxazol-2-yl)amino)propan-1-ol 4-methylbenzenesulfonate], the IC50 at rhVAP-1 is less than 0.1 µM; against rhMAO-A (setting [1]) it was 1 to 10 µM; at rhMAO-B (setting [1]) it was 1 to 10 µM.

Turning to `NC/C(=C/F)COc1ccc2nc(NCc3ccc(C(F)(F)F)nc3)oc2c1` [Example 83, (Z)-6-((2-(aminomethyl)-3-fluoroallyl)oxy)-N-((6-(trifluoromethyl)pyridin-3-yl)methyl)benzo[d]oxazol-2-amine 4-methylbenzenesulfonate], the results for the IC50 against rhVAP-1, against rhMAO-A (setting [1]) and against rhMAO-B (setting [1]) were less than 0.1 µM, 10 to 30 µM and 1 to 10 µM, respectively.

Take `CCCCc1nc2ccc(C/C(=C/F)CN)cc2o1` [Example 31, (Z)-2-((2-butylbenzo[d]oxazol-6-yl)methyl)-3-fluoroprop-2-en-1-amine]: the values for the IC50 against rhVAP-1, at rhMAO-A (setting [1]) and against rhMAO-B (setting [1]) were less than 0.1 µM, 10 to 30 µM and 1 to 10 µM, respectively.

Consider `CCCCc1nc2ccc(NC/C(=C/F)CN)cc2o1` [Example 17, (E)-N1-(2-butylbenzo[d]oxazol-6-yl)-2-(fluoromethylene)propane-1,3-diamine], for which the IC50 against rhVAP-1 is less than 0.1 µM; against rhMAO-A (setting [1]), 10 to 30 µM; on rhMAO-B (setting [1]), 0.1 to 1 µM.

As to “(Z)-2-((6-((2-(aminomethyl)-3-fluoroallyl)oxy)benzo[d]oxazol-2-yl)amino)-N-methylacetamide (4-methylbenzenesulfonate) [Example 63]”, the IC50 at rhVAP-1 is less than 0.1 µM; against rhMAO-A (bound printed in cell), greater than 40 µM; against rhMAO-B (bound printed in cell), greater than 40 µM.

Take `NC/C(=C/F)COc1ccc2nc(NCc3ccnc(C(F)(F)F)c3)oc2c1` [Example 62, (Z)-6-((2-(aminomethyl)-3-fluoroallyl)oxy)-N-((2-(trifluoromethyl)pyridin-4-yl)methyl)benzo[d]oxazol-2-amine 4-methylbenzenesulfonate]: the IC50 against rhVAP-1 was less than 0.1 µM; at rhMAO-A (setting [1]), 10 to 30 µM; against rhMAO-B (setting [1]) it was 1 to 10 µM.

On to `NC/C(=C\F)COc1ccc2nc(CCCCc3ccccc3)oc2c1` [Example 35, 4-methylbenzenesulfonate], for which the IC50 at rhVAP-1 was less than 0.1 µM; against rhMAO-A (setting [1]) it was 10 to 30 µM; against rhMAO-B (setting [1]), less than 0.1 µM.

In the case of `CC1(C)CCC(c2nc3ccc(OC/C(=C/F)CN)cc3o2)CC1` [Example 36, (E)-2-(((2-(4,4-dimethylcyclohexyl)benzo[d]oxazol-6-yl)oxy)methyl)-3-fluoroprop-2-en-1-amine 4-methylbenzenesulfonate], the IC50 was less than 0.1 µM against rhVAP-1, 10 to 30 µM against rhMAO-A (setting [1]) and 0.1 to 1 µM against rhMAO-B (setting [1]).

Turning to `CCCNc1nc2ccc(OC/C(=C/F)CN)cc2o1` [Example 5, (E)-6-((2-(aminomethyl)-3-fluoroallyl)oxy)-N-propylbenzo[d]oxazol-2-amine], the IC50 is less than 0.1 µM at rhVAP-1, 10 to 30 µM against rhMAO-A (setting [1]) and 0.1 to 1 µM against rhMAO-B (setting [1]).

As to `NC/C(=C\F)COc1ccc2nc(NCc3ccncc3)oc2c1` [Example 23, (E)-6-((2-(aminomethyl)-3-fluoroallyl)oxy)-N-(pyridin-4-ylmethyl)benzo[d]oxazol-2-amine 4-methylbenzenesulfonate], the IC50 against rhVAP-1 is less than 0.1 µM; on rhMAO-A (setting [1]), 10 to 30 µM; against rhMAO-B (setting [1]), 1 to 10 µM.

As to `CCCCc1nc2ccc(OC/C(=C/F)CN)cc2s1` [Example 3, (E)-2-(((2-butylbenzo[d]thiazol-6-yl)oxy)methyl)-3-fluoroprop-2-en-1-amine], the IC50 against rhVAP-1 was less than 0.1 µM; against rhMAO-A (setting [1]), 1 to 10 µM; at rhMAO-B (setting [1]) it was less than 0.1 µM.

For the compound `NC/C(=C\F)COc1ccc2nc(NCc3ccc(C(F)(F)F)nc3)oc2c1` [Example 84, (E)-6-((2-(aminomethyl)-3-fluoroallyl)oxy)-N-((6-(trifluoromethyl)pyridin-3-yl)methyl)benzo[d]oxazol-2-amine 4-methylbenzenesulfonate], the IC50 on rhVAP-1 is less than 0.1 µM; at rhMAO-A (bound printed in cell), greater than 40 µM; on rhMAO-B (setting [1]), 1 to 10 µM.

Consider `CCCCc1nc2ccc(OC/C(=C\F)CN)cc2n1C` [Example 73, (Z)-2-(((2-Butyl-1-methyl-1H-benzo[d]imidazol-6-yl)oxy)methyl)-3-fluoroprop-2-en-1-amine 4-methylbenzenesulfonate], for which the IC50 at rhVAP-1 is less than 0.1 µM; against rhMAO-A (setting [1]), 1 to 10 µM; against rhMAO-B (setting [1]), 1 to 10 µM.

Regarding `CC(C)(C)CNc1nc2ccc(OC/C(=C/F)CN)cc2o1` [Example 59, (E)-6-((2-(aminomethyl)-3-fluoroallyl)oxy)-N-neopentylbenzo[d]oxazol-2-amine (4-methylbenzenesulfonate)], the IC50 against rhVAP-1, against rhMAO-A (setting [1]) and on rhMAO-B (setting [1]) was 1 to 10 µM in each case.

`NC/C(=C\F)COc1ccc2nc(NC3CCC(O)C3)oc2c1` (stereo not drawn) [Example 87, (E)-3-((6-((2-(aminomethyl)-3-fluoroallyl)oxy)benzo[d]oxazol-2-yl)amino)cyclopentan-1-ol 4-methylbenzenesulfonate]: the IC50 against rhVAP-1 is less than 0.1 µM; on rhMAO-A (setting [1]), 1 to 10 µM; against rhMAO-B (setting [1]), 1 to 10 µM.

Take `CCCCc1nc2ccc(C(=O)NC/C(=C/F)CN)cc2o1` [Example 40, (E)-N-(2-(aminomethyl)-3-fluoroallyl)-2-butylbenzo[d]oxazole-6-carboxamide 4-methylbenzenesulfonate]: the IC50 against rhVAP-1 fell in the range of 0.1 to 1 µM; against rhMAO-A (setting [1]), 10 to 30 µM; against rhMAO-B (setting [1]), 10 to 30 µM.

For `C=C(CN)c1ccc2nc(CCCC)oc2c1` [Example 92, 2-(2-butylbenzo[d]oxazol-6-yl)prop-2-en-1-amine], the IC50 against rhVAP-1 was 0.1 to 1 µM; against rhMAO-A (setting [1]), less than 0.1 µM; against rhMAO-B (setting [1]), less than 0.1 µM.

Consider `CCCCc1nc2ccc(OC/C(=C/F)CN)c(F)c2o1` [Example 2, (E)-2-(((2-butyl-7-fluorobenzo[d]oxazol-6-yl)oxy)methyl)-3-fluoroprop-2-en-1-amine], for which the IC50 on rhVAP-1 was less than 0.1 µM; against rhMAO-A (setting [1]), 10 to 30 µM; against rhMAO-B (setting [1]) it was less than 0.1 µM.

`NC/C(=C\F)COc1ccc2nc(NCc3cccnc3)oc2c1` [Example 26, (E)-6-((2-(aminomethyl)-3-fluoroallyl)oxy)-N-(pyridin-3-ylmethyl)benzo[d]oxazol-2-amine 4-methylbenzenesulfonate]: the IC50 against rhVAP-1 was less than 0.1 µM; against rhMAO-A (setting [1]) it was 10 to 30 µM; on rhMAO-B (setting [1]), 1 to 10 µM.

On to `CCCCn1oc2cc(OC/C(=C/F)CN)ccc2c1=O` [Example 9, (E)-6-((2-(aminomethyl)-3-fluoroallyl)oxy)-2-butylbenzo[d]isoxazol-3(2H)-one 4-methylbenzenesulfonate], for which the IC50 at rhVAP-1 was less than 0.1 µM; at rhMAO-A (setting [1]), 10 to 30 µM; at rhMAO-B (setting [1]) it was 1 to 10 µM.

For the compound `CCCCc1nc2ccc(SC/C(=C/F)CN)cc2o1` [Example 22, (E)-2-(((2-butylbenzo[d]oxazol-6-yl)thio)methyl)-3-fluoroprop-2-en-1-amine 4-methylbenzenesulfonate], the IC50 against rhVAP-1 is less than 0.1 µM; against rhMAO-A (setting [1]), 10 to 30 µM; against rhMAO-B (setting [1]), 0.1 to 1 µM.

With `NC/C(=C\F)COc1ccc2nc(NCCc3ccccc3)oc2c1` [Example 45, (E)-6-((2-(aminomethyl)-3-fluoroallyl)oxy)-N-phenethylbenzo[d]oxazol-2-amine 4-methylbenzenesulfonate], the results for the IC50 against rhVAP-1, at rhMAO-A (setting [1]) and against rhMAO-B (setting [1]) were less than 0.1 µM, 10 to 30 µM and 0.1 to 1 µM, respectively.

For the compound `CNC(=O)C(Cc1ccccc1)Nc1nc2ccc(OC/C(=C\F)CN)cc2o1` (stereo not drawn) [Example 56, (Z)-2-((6-((2-(aminomethyl)-3-fluoroallyl)oxy)benzo[d]oxazol-2-yl)amino)-N-methyl-3-phenylpropanamide 4-methylbenzenesulfonate], the IC50 at rhVAP-1 is less than 0.1 µM; at rhMAO-A (bound printed in cell) it was greater than 50 µM; against rhMAO-B (setting [1]), 10 to 30 µM.

On to `CCCNc1nc2ccc(OC/C(=C/F)CN)cc2s1` [Example 4, (E)-6-((2-(aminomethyl)-3-fluoroallyl)oxy)-N-propylbenzo[d]thiazol-2-amine], for which the IC50 against rhVAP-1 is less than 0.1 µM; on rhMAO-A (setting [1]), 10 to 30 µM; against rhMAO-B (setting [1]) it was 0.1 to 1 µM.

For `CCCCn1cnc2cc(OC/C(=C/F)CN)ccc21` [Example 89, (E)-2-(((1-butyl-1H-benzo[d]imidazol-5-yl)oxy)methyl)-3-fluoroprop-2-en-1-amine 4-methylbenzenesulfonate], the IC50 at rhVAP-1 is less than 0.1 µM; on rhMAO-A (bound printed in cell), greater than 50 µM; against rhMAO-B (setting [1]), 1 to 10 µM.

Regarding `COCCCNc1nc2ccc(OC/C(=C\F)CN)cc2o1` [Example 81, (Z)-6-((2-(aminomethyl)-3-fluoroallyl)oxy)-N-(3-methoxypropyl)benzo[d]oxazol-2-amine 4-methylbenzenesulfonate], the values for the IC50 against rhVAP-1, against rhMAO-A (setting [1]) and at rhMAO-B (setting [1]) were less than 0.1 µM, 1 to 10 µM and 1 to 10 µM, respectively.
